Series [1] deals with NRAS mutant melanoma cells. The experiment in a line: Telomere dysfunction-induced foci (TIF) assay. The note with it: WM3000 transduced with TERT shRNA; NAC 1 mM for 7 days. The format is cell-based, human. How it is done: Supplementary FIGS. 6a-b. […] NRAS mutant melanoma cells WM3000 were transduced with TERT shRNA and treated with NAC […] for 7 days. (Supplementary FIG. 6a) TIFs were assessed by indirect immunofluorescence combined with fluorescence in situ hybridization (FISH). Representative images are shown (scale bar=10 μm). (Supplementary FIG. 6b) Quantification of TIF positive cells. Cells were scored as TIF positive when three or more y-H2AS foci (green) were co-localizing with telomere foci (red). Data represent average of thirteen fields imaged +/−SD.
Supplementary FIGS. 8a-d. NRAS mutant melanoma cells are sensitive to the telomere uncapping agent 6-thio-dG. NRAS^mut melanoma cells were treated with 6-thio-dG for 6, 12 or 18 days. (Supplementary FIG. 8a) Relative cell number was assessed by Cyrstal Violet assay and calculated relative to DMSO-treated cells. […] (Supplementary FIG. 8c) NRAS^mut cells were treated with 6-thio-dG for 7 days and telomere-induced foci (TIF) were determined by indirect immunofluorescence combined with fluorescence in situ hybridization (FISH). […] (Supplementary FIG. 8d) Quantification of TIF assay. Cells were scored as TIF-positive when four or more γ-H2AX foci (green) were co-localizing with telomere foci (red). […] P values were calculated by unpaired Student's t-test.
DNA damage and telomere dysfunction assay (TIF). […] Mean fluorescence staining was quantified by flow cytometry. […]

In series [2] the test system is NRAS mutant melanoma spheroids. Briefly: 3D collagen-embedded melanoma spheroids, live/dead staining. The format is cell-based, human. The following applies: 6-thio-dG (5 μM) and Ganetespib (5 μM); day 7. How it is done: (FIG. 6a) Collagen-embedded melanoma spheroids were treated with DMSO, 6-thio-dG (5 μM) and Gam (5 μM) as in FIGS. 4a-c. On day 7, spheroids were stained with Calcein AM (live cells;
green) and EtBr (dead cells; red) and imaged using an inverted microscope (4×; scale bar=250 μm). Representative merged images from three independent experiments are shown. (FIGS. 6b-d) NRAS mutant M93-047 tumor bearing mice were treated with vehicle control, 6-thio-dG (2.5 mg/kg; ip qd), Gam (12.5 mg/kg; ip qod), or the combination of the two drugs for the indicated days (n=7 mice/group). (FIG. 6b) Average tumor volume over time±SEM is represented. (FIG. 6c) Average tumor weight±SEM after 14 days of treatment. P values were calculated using unpaired Student's t-test. * p<0.05, **p<0.01, ***p<0.005, when comparing vehicle control vs. combination treatment groups. […] Kaplan Meier survival curves of mice treated for 14 days. p-values were calculated by Mantel-Cox logrank test; * p<0.05, **p<0.01, ***p<0.005. (FIG. 6e) Animal weight (grams) before treatment (start of TX) and at the end of the study (End of TX) was assessed and recorded for every mouse enrolled in the study. […] Statistical significance was assessed by unpaired Student's t-test.
Supplementary FIGS. 10a-b. […] Percent cell death was determined by flow cytometry following staining of cells with Annexin V and Propidium iodide. […]

Series [3] concerns KRAS mutant HCT116 cells. The experiment in a line: Cell death, Annexin V/PI. The format is cell-based, human. The note with it: 1 μM 6-thio-dG, 5 μM Gam.
Series [4] concerns NRAS mutant melanoma cells. The experiment in a line: Cell death by flow cytometry (PSVue or Annexin V/PI). The format is cell-based. The following applies: TERT shRNA 7 dpi; 5 μM Gamitrinib for 48 h. For orientation: In flow cytometry, cells or beads pass a laser one at a time.
Procedure: (FIG. 2d) NRASmut melanoma cells and non-transformed human fibroblasts were treated with 1 or 5 μM 6-thio-dG for 7 or 14 days. Cell death was assessed by PSVUe staining. Percent of apoptotic cells is shown. […] (FIGS. 2f-g) Cells were treated with 1 μM 6-thio-dG for 7 days. […] Data represent average from three independent experiments±SEM. *p<0.05; **p<0.01; ***p<0.005 in unpaired Student's t-test.
(FIG. 3f) SOD2 was silenced using shRNA. Transduced M93-047 cells were treated with DMSO or 1 μM of 6-thio-dG and cell death was assessed by Annexin V/PI straining. (FIG. 3g) M93-047 cells were transduced with a SOD2 lentiviral construct or empty vector control (pLX304). Transduced cells were treated with increasing doses (1, 2.5 and 5 μM) of 6-thio-dG for 7 days and cell death was assessed. Data represent average from three independent experiments±SEM. *p<0.05; **p<0.01; ***p<0.005 in unpaired Student's t-test.
(FIG. 4a) NRASmut melanoma cells transduced with TERT shRNA were treated 7 days post infection with 5 μM Gamitrinib (Gam) for 48 h. Cell death was assessed by Annexin V and PI staining. (FIG. 4b) NRASmut melanoma cells and non-transformed fibroblasts were treated with 1 μM 6-thio-dG for 5 days. At day 5, culture medium was replaced and cells treated with 1 μM 6-thio-dG plus 5 μM Gam for two more days. Cells were stained with Annexin V and PI and percent cell death was determined by flow cytometry. […] Data represent average of three independent experiments ±SEM. P values were calculated using unpaired Student's t-test; * p<0.05; ***p<0.005.
(Supplementary FIG. 10a) NRASmut melanoma cells were treated with 6-thio-dG (1 μ) for 7 days total. At day 5, culture medium was replaced and cells were treated with 1 μM 6-thio-dG plus 1 mM Phenformin for two more days. Percent cell death was determined by flow cytometry following staining of cells with Annexin V and Propidium iodide. Data represent average of three independent experiments +/−SEM. *p<0.05 in unpaired Student's t-test.
Series [5] relates to NRAS-WT/BRAF-WT melanoma cells. The experiment in a line: Cell death, Annexin V/PI. The format is cell-based, human. The following applies: single agents or combination; 1 μM 6-thio-dG, 5 μM Gam.
Series [6] has as its system SOD2. The following applies: cited from earlier work.
For series [7], the system named is NRAS mutant SKNAS cells. The experiment in a line: Cell death, Annexin V/PI. The format is cell-based, human. The note with it: single agents or combination; 1 μM 6-thio-dG, 5 μM Gam.
Series [8] concerns NRAS mutant cells. The note with it: cited from earlier work.
Series [9] concerns BRAF-mutant melanoma. The following applies: cited from earlier work.
Series [10] relates to KRAS mutant A549 cells. Briefly: Cell death, Annexin V/PI. The note with it: 1 μM 6-thio-dG, 5 μM Gam. The format is cell-based, human.
Series [11] concerns NRAS-WT/BRAF-mut melanoma cells. The experiment in a line: Cell death, Annexin V/PI. The format is cell-based, human.

“Also recorded” adds a separate entry of the source.

Turning to `CC(=O)N[C@@H](CS)C(=O)O` [NAC, N-acetyl-L-cysteine], in [1], the “number of TIF in TERT depleted cells” value is “attenuates TIFs; also recorded: attenuated the number of TIF”.
Consider `CC(C)c1cc(-c2n[nH]c(=O)n2-c2ccc3c(ccn3C)c2)c(O)cc1O` [ganetespib], for which the “enhancement of 6-thio-dG efficacy in spheroids” value in [2] is “did not substantially enhance the efficacy”.
As to Gamitrinib [reference compound], the cell death result in series [3] is “did not induce substantial death”; in [5], “did not induce cell death”; in series [7] it was “triggered significant death”; in series [10], “did not induce substantial death”; in series [11] (Gamitrinib alone, 5 μM), 75-80%. Further, the “cytotoxic effects in TERT depleted cells” value in series [4] was “enhanced the cytotoxic effects”. Also, in [6], the SOD2 levels result is recorded as “downregulate SOD2 levels”. Also, the “anti-cancer activity as a single agent” value in series [8] is “limited activity”. In series [9], the anti-cancer efficacy entry is reported as “efficacy”. Besides, the “cell death (in words)” value in series [11] (1 μM 6-thio-dG, 5 μM Gam) is listed as “highly sensitive”.
